{
  "source": "patent EP1202746B1",
  "about": "“NSAID AND EGFR KINASE INHIBITOR CONTAINING COMPOSITION FOR THE TREATMENT OR INHIBITION OF COLONIC POLYPS AND COLORECTAL CANCER” (Wyeth Holdings Corporation, priority 1999, dated 2001)",
  "system": "intestinal polyps (adenomas)",
  "assay": "Min mouse intestinal polyp test procedure emulating familial adenomatous polyps (FAP); polyps counted on day 61",
  "assay_type": "in vivo, Min mouse (C57BL/6J-Min/+)",
  "description": "The procedure described below emulates familial adenomatous polyps (FAP) in humans using the Min mouse (C57BL/6J-Min/+), which is a strain which has […] of the APC gene. These animals develop multiple intestinal polyps (adenomas) that ultimately progress to form adenocarcinomas. The polyps that develop in Min mice express EGFR and have activated COX-2.\nTest animals were divided into four treatment groups: Group I, control; Group II, N-[4-[(3-bromophenyl)amino]-6-quinazolinyl]-2-butynamide; Group III, sulindac; and Group IV, combination of sulindac and N-[4-[(3-bromophenyl)amino]-6-quinazolinyl]-2-butynamide (hereinafter referred to as the NSAID/EGFR kinase inhibitor combination). The test compound was blended with a standard murine chow and animals were given ad libitum access to the food, in quantities corresponding to the following approximate daily dosages: Group II - 40 mg/kg/day N-[4-[(3-bromophenyl)amino]-6-quinazolinyl]-2-butynamide; […]; and Group IV - 40 mg/kg/day N-[4-[(3-bromophenyl)amino]-6-quinazolinyl]-2-butynamide and 20 mg/kg/day sulindac. The animals were treated for 60 days. The food was weighed once per week to determine consumption, and the animals also weighed weekly. On day 61, the animals were euthanized with CO2 inhalation, and the entire intestinal tract from stomach to anus was removed. The intestinal tract was injected with Bouins fixative, and allowed to fix for several days. The intestinal tracts were then opened and the number of polyps counted. Statistical analysis was performed using the Student's t-Test; a p value of ≤ 0.05 is considered statistically significant.\nThe animals were treated for 60 days. The food was weighed once per week to determine consumption, and the animals also weighed weekly. On day 61, the animals were euthanized with CO2 inhalation, and the entire intestinal tract from stomach to anus was removed. The intestinal tract was injected with Bouins fixative, and allowed to fix for several days. The intestinal tracts were then opened and the number of polyps counted. Statistical analysis was performed using the Student's t-Test; a p value of ≤ 0.05 is considered statistically significant.",
  "data": [
    {"smiles": "CCOc1cc2ncc(C#N)c(Nc3ccc(F)c(Cl)c3)c2cc1NC(=O)C=CCN(C)C", "note": "[4-dimethylamino-but-2-enoic acid [4-(3-chloro-4-fluoro-phenylamino)-3-cyano-7-ethoxy-quinolin-6-yl]-amide]", "values": [
      {"measurement": "reduced polyp numbers", "setting": "third run, alone, 20 mg/kg, 60 days, versus control", "result": 87, "unit": "%"}
    ]},
    {"smiles": "CC#CC(=O)Nc1ccc2ncnc(Nc3cccc(Br)c3)c2c1", "note": "[N-[4-[(3-bromophenyl)amino]-6-quinazolinyl]-2-butynamide]", "values": [
      {"measurement": "Number of Polyps", "setting": "Group II: 40 mg/kg/day in chow, 60 days, control Group I 32.3 ± 20.7", "result": "15.6 ± 10.6"}
    ]},
    {"smiles": "CC1=C(CC(=O)O)c2cc(F)ccc2/C1=C\\c1ccc([S+](C)[O-])cc1", "note": "(centres unmarked) [sulindac]", "values": [
      {"measurement": "Number of Polyps", "setting": "Group III: 20 mg/kg/day sulindac in chow, 60 days, control Group I 32.3 ± 20.7", "result": "10.0 ± 6.6"},
      {"measurement": "Number of Polyps", "setting": "third run, Group III: 5 mg/kg/day sulindac in chow, 60 days, control Group I 19.5 ± 14.1", "result": "20.6 ± 11.8"},
      {"measurement": "polyp numbers (result in words)", "setting": "third run, sulindac alone at the 5mg/kg dose", "result": "did not reduce polyp numbers at all"}
    ]}
  ]
}
